Values quoted from earlier work in PMC8448535 (Bioorganic & Medicinal Chemistry, 2021).
Structures can show the parent of a compound that is named as a salt.

Tests used:
[1] = tested on: recombinant-human ACE (rhACE); conditions: pIC50 of IC50 in mol/L
[2] = tested on: recombinant-human ACE2 (rhACE2); conditions: pIC50 of IC50 in mol/L
ACE2 = conditions: read-out: activity (inhibitory effect against ACE2)
furin = conditions: database screening of pre-existing drugs
influenza virus H3N2 = conditions: H3N2, 10 μM, at 24 h, compared to control
cell viability = conditions: in words

CC(C)C[C@@H](N[C@@H](Cc1cncn1Cc1cc(Cl)cc(Cl)c1)C(=O)O)C(=O)O [MLN-4760-R]
pIC50 [1]: 4.4 ± 0.3 mol/L | pIC50 [2]: 8.9 ± 0.1 mol/L

CC(C)CC(N[C@@H](Cc1cncn1Cc1cc(Cl)cc(Cl)c1)C(=O)O)C(=O)O (stereo partly drawn) [MLN-4760-S/R]
pIC50 [1]: 4.4 ± 0.2 mol/L | pIC50 [2]: 8.5 ± 0.1 mol/L

NCCNCCN1CC1 [N-(2-aminoethyl)-1-aziridineethanamine]
IC50 (ACE2): 57 ± 7 µM

Nc1nc(N)c2nc(CNc3ccc(C(=O)N[C@@H](CCC(=O)O)C(=O)O)cc3)cnc2n1 [aminopterin]
affinity for furin (furin): good affinity

CN(Cc1cc(Br)cc(Br)c1N)C1CCCCC1 [bromhexine]
activity towards TMPRSS2 (TMPRSS2): good activity

CN(C)C(=O)COC(=O)Cc1ccc(OC(=O)c2ccc(NC(=N)N)cc2)cc1 [camostat mesylate]
block of SARS-CoV from entering cells (SARS-CoV): 65%

N=C(N)c1cccc(C[C@H](NS(=O)(=O)c2cccc(-c3ccc(Cl)cc3Cl)c2)C(=O)N2CCC(CCN)CC2)c1 [compound 92]
decrease in virus titres (influenza virus H3N2): 100 fold | effect on cell viability (cell viability): little to no effect

N=C(N)c1cccc(C[C@H](NS(=O)(=O)c2cccc(-c3ccc(Cl)cc3Cl)c2)C(=O)N2CCC(NC(=O)NC3CCCCC3)CC2)c1 [compound 114]
effect on cell viability (cell viability): little to no effect

N=C(N)c1ccc(/N=N/Nc2ccc(C(=N)N)cc2)cc1 [diminazene]
affinity for furin (furin): good affinity

CN(Cc1cnc2nc(N)nc(N)c2n1)c1ccc(C(=O)N[C@@H](CCC(=O)O)C(=O)O)cc1 [methotrexate]
affinity for furin (furin): good affinity

COc1cc(C2Oc3cc([C@H]4Oc5cc(O)cc(O)c5C(=O)[C@@H]4O)ccc3OC2CO)ccc1O (stereo partly drawn) [silybin]
affinity for furin (furin): good affinity

angiotensin-III (RVYIHPF; Angiotensin 3; UniProt P01019 26-32, looked up) [Ang-III]
vasopressor efficacy relative to Ang-II: 40%
